This assay concerns MDA-MB231-luc-D3H2LN cells. Briefly: Invasion of MDA-MB231-D3H2LN cells into collagen. Type of assay: cell-based. The settings on record: MDA-MB-231, anti-invasive effect in MDA-MB231 breast cancer cells, concentration giving 0.5 fold the effect of 10 μM Y-27632 ref. compound, read-out: 0.5 fold effect compared to 10 μM Y-27632. From the text: 13.4 Effect of Drug Compounds on Invasion of MDA-MB231-D3H2LN Cells into Collagen
A key step in the generation of tumor metastasis is the invasion of tumor cells into the extracellular matrix, a major component of which is collagen. Therefore, the invasion of tumor cells into collagen in vitro may be indicative of the generation of metastasis in vivo. E. g., MDA-MB231-luc-D3H2LN […] breast cancer cells display indeed both higher invasion into collagen in vitro and a higher metastatic potential in vivo as compared to MDA-MB231 cells (from which they were derived). Using these MDA-MB231-luc-D3H2LN cells as a model, the aim of the experiment described here is to identify drug compounds that inhibit the invasion of tumor cells into collagen in vitro, therefore potentially inhibiting also the generation of tumor metastasis in vivo.
Step 1: Preparation of cells at the bottom of a collagen gel: Cells are suspended in a liquid collagen solution (4° C.), distributed into BSA-coated wells, and then collected at the bottom of the wells by centrifugation. The collagen is then solidified by incubation at 37° C. The BSA coating improves the adhesion of the collagen gel.
Step 2: Pre-treatment with the compounds to be tested: Concentrated drug solutions are then added on top of the collagen, and cells are pre-incubated for 24 h with the drugs at low serum conditions (0.025% FBS).
Step 3: Stimulation of invasion: Medium with 5% FBS is then added in order to stimulate invasion of the cells into the collagen gel.
Step 4: Fixation and staining: Following another 24 h incubation, cells are fixed and nuclei are stained.
Step 5: Analysis: Finally, plates are analyzed using an automated microscope. Fluorescent beads that have been included into the BSA coating serve to detect the bottom of the wells. Pictures of the stained nuclei are taken at the same level (0 μm) as well as 25 μm and 50 μm above.
Invasion assay: Negative control: No drug (just DMSO at equivalent concentration). Positive control: 10 μM Y-27632. To avoid edge effects, only the 60 central wells B2-G11 are used; lines A and H as well as columns 1 and 12 remain free. Each drug is tested at least in triplicate. The positive and negative controls should be tested in double triplicates at different positions on each plate. Typical plate map (−=negative control, +=positive control, 1-16=16 different drug compounds):
for each well, calculate the mean invasion distance of the counted cells: (25 μm×number of cells at 25 μm+50 μm×number cells at 50 μm)/sum of cells at 0, 25 and 50 μm
for all four parameters (number of cells at 0 μm, number of cells at 25 μm, number of cells at 50 μm, mean invasion distance of the counted cells), calculate means, SD and CV of the replicates (n=6 for the controls; n=3 for the samples)
invalidate any replicate with a CV≥50% (compound to be re-tested, or assay to be repeated if CV≥50% for the untreated negative control or the compound Y-27632-treated positive control). Y27632 is a selective inhibitor of the Rho-associated protein kinase p160ROCK of the following formula
validate the assay only if the mean invasion distance of the cells treated with 10 μM Y-27632 (positive control) is decreased by ≥40% as compared to the untreated negative control
Anti-invasive effect in MDA-MB231 breast cancer cells: 0.5 fold effect compared to 10 μM Y-27632 ref. compound.

Molecules are shown by their SMILES.

This is an account of results in patent publication US10538485B2, “Compounds for use as therapeutic agents affecting P53 expression and/or activity” (ABIVAX, priority 2011, dated 2020).

As for `CCN(CC)CCCNC(=O)c1ccc(Nc2cccc(/C=C/c3ccncc3)c2)c(C)c1` [Compound 6], the IC (0.5-fold effect of 10 uM Y-27632) was found to be 0.7 ± 0.1 µM. Next, `NC(=O)c1cccc(Nc2cccc(/C=C/c3ccncc3)c2)c1` [Compound 9, 3-[3-(2-pyridin-4-ylvinyl)phenylamino]benzamide]: 1.1 ± 0.4 µM; `O=S(=O)(NCCCN1CCOCC1)c1cccc(Nc2cccc(/C=C/c3ccncc3)c2)c1` [Compound 16]: 0.75 ± 0.19 µM; `O=S(=O)(NCCCN1CCCCC1)c1cccc(Nc2cccc(/C=C/c3ccncc3)c2)c1` [Compound 17]: 0.83 ± 0.09 µM. As for `CCN(CC)CCCNS(=O)(=O)c1cccc(Nc2cccc(/C=C/c3ccncc3)c2)c1` [Compound 18, N-(3-diethylaminopropyl)-3-[3-(2-pyridin-4-ylvinyl)phenylamino]benzenesulfonamide], the figure is 0.55 ± 0.05 µM; as for `O=C(NCCCN1CCCCC1)c1cccc(Nc2cccc(/C=C/c3ccncc3)c2)c1` [Compound 19], 0.25 ± 0.05 µM.

Take `CN1CCN(CCCNC(=O)c2cccc(Nc3cccc(/C=C/c4ccncc4)c3)c2)CC1` [Compound 21, (E)-[3-(4-methyl-piperazinyl)-propyl]-3-[3-(2-pyridin-4-ylvinyl)-phenylamino]-benzamide]: the IC (0.5-fold effect of 10 uM Y-27632) worked out at 0.17 ± 0.04 µM.

In the case of `O=C(NCCCN1CCCC1)c1cccc(Nc2cccc(/C=C/c3ccncc3)c2)c1` [Compound 22], the IC (0.5-fold effect of 10 uM Y-27632) was determined as 0.3 ± 0.05 µM. Next, `O=S(=O)(NCCN1CCCCC1)c1cccc(Nc2cccc(/C=C/c3ccncc3)c2)c1` [Compound 24]: 0.64 ± 0.2 µM. For the compound `O=S(=O)(NCCN1CCCC1)c1cccc(Nc2cccc(/C=C/c3ccncc3)c2)c1` [Compound 25], the IC (0.5-fold effect of 10 uM Y-27632) amounted to 0.5 ± 0.21 µM. As for `CCN(CC)CCCNC(=O)c1ccccc1Nc1cccc(OC(F)(F)F)c1` [Compound 49], the figure is 0.13 ± 0.3 µM; as for `CCN(CC)CCCNC(=O)c1ccccc1Nc1ccc(OCc2ccccc2)cc1` [Compound 50], 1 µM. As for `CCN(CC)CCCNC(=O)c1ccccc1Nc1cccc(/C=C/c2ccncc2)c1` [Compound 129], the figure is 0.2 µM.
